# From patent US10988523B2, “Modified lipidated Relaxin B chain peptides and their therapeutic use” (Sanofi, priority 2018, dated 2021)
# *1 amine or outer side, *2 acyl side, *3 side chain or, on linkers, in order; H or OH if unused. Where a SMILES comes first, the peptide text is derived from it. Side-chain parts run from the residue outwards. [ ]: non-standard residue; d: D form. The star is where a group is joined. γGlu = O=C(O)[C@H](CCC(=O)[*:2])N[*:1]; Stearoyl = CCCCCCCCCCCCCCCCCC(=O)*; Palmitoyl = CCCCCCCCCCCCCCCC(=O)*; Nle = CCCC[C@H](N)C(=O)O; Aib = CC(C)(N)C(=O)O
# Tests used:
# RXFP1 = target: T1, RXFP1 (Homo sapiens, UniProt Q9HBX9); assay: OVCAR5 cAMP assay (HTRF), RXFP1 agonist activity; assay type: cell-based; conditions: for Emax: OVCAR-5, maximal cAMP relative to H2-relaxin maximum (100%), read-out: EMax, OVCAR 5 cells (cAMP)
# T1 construct: OVCAR5 cells expressing endogenous RXFP1; endogenous in cells; host or cells: OVCAR5 cells
# T1 sequence (Q9HBX9 1-757): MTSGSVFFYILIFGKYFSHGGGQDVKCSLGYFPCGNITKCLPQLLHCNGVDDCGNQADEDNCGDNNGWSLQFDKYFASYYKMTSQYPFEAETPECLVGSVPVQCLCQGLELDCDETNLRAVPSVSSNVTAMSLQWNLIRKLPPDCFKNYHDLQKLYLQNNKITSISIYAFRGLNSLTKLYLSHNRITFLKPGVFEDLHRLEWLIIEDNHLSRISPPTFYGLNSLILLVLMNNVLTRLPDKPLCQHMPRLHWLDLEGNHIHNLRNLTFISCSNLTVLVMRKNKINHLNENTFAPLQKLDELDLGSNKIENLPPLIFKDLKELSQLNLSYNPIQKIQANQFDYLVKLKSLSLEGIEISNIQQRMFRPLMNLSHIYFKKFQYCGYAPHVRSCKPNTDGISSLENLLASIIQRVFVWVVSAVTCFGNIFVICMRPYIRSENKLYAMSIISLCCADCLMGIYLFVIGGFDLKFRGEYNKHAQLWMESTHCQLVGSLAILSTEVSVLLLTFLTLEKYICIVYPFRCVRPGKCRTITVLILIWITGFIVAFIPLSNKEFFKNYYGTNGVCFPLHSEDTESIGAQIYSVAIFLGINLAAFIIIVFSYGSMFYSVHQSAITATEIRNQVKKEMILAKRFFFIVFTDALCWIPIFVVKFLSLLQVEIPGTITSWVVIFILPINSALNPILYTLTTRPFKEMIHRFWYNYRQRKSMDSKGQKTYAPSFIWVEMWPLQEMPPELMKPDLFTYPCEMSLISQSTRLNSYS
# Method in brief: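 OVCAR5 cells (endogenous RXFP1) pretreated 40 min at 37° C with 1 mM IBMX, then exposed to peptides in serum-free medium for 30 min at 37° C. Lysate cAMP read by HTRF; EC50 from variable-slope sigmoidal fit; Emax as % of H2-relaxin maximal cAMP in same run.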
# [1] = Pharmacokinetic (PK) determination after i.v. or s.c. administration to rats; assay type: in vivo, Sprague Dawley rats; conditions: Sprague Dawley, Rat PK; for C0 / half-life: iv, 1 mg/kg i.v.; for C0: extrapolated plasma concentration at t=0, read-out: C0; for half-life / Cmax / Tmax / bioavailability: plasma; for half-life: read-out: T½ (converted); for Cmax / Tmax: sc, 3 mg/kg s.c.; for bioavailability: subcutaneous, 3 mg/kg s.c. vs 1 mg/kg i.v., dose-corrected AUC ratio
# Method in brief: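 Sprague Dawley rats received peptide in PBS at 1 mg/kg i.v. or 3 mg/kg s.c., dose corrected for salts, solvent and purity. Plasma analysed by LC/MS after protein precipitation; non-compartmental PK, BLQ values set to zero, F% as dose-corrected s.c./i.v. AUC ratio.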
# [2] = Stability testing of peptides in human plasma or blood; assay type: in vitro ADME; conditions: 37° C.; for Human Plasma stability % remaining T = 0: human plasma or blood, T = 0 (reference), 5 μM
# Protocol: (§1) Prior to the testing of stability in plasma (or blood) of a peptide batch, its purity (HPLC-UV) was determined.
# (§2) Rat and Human plasma: anti-coagulant sodium or lithium heparin.
# (§3) Rat and Human blood: anti-coagulant sodium or lithium heparin. • Stock solution: • 100 μM solution of study compound in 50 mM Phosphate buffer pH 7.4. • 950 μL plasma (or blood) was pre-incubated for 5 min at 37° C. 50 μL of compound stock solution was added. Final compound concentration=5 μM. Vortex and transfer 1504, plasma (or blood) into an Eppendorf for each time point. The time points […] were carried out in duplicate for each species.
# (§4) After incubation 150 μL, plasma (or blood) was extracted with 600 μL, Acetonitrile containing with 1% TFA. Then, vortexed and centrifuged 10 min at 14600 rpm. 200 μL supernatant was dried under N2. The sample was reconstituted in 200 μL of H2O/CH3CN 98/2+0.1% FA+50 ng/ml Labetalol and analyzed using the analytical system used in solubility and stability studies.
# (§5) For determination of the amount of the remaining peptide, the peak areas of the target compound at t0 and each time point […] were compared, resulting in “% remaining peptide”, following the equation: % remaining peptide=[(peak area peptide time)×100]/peak area peptide t0. The stability is expressed as “% remaining peptide”.
# [3] = Stability testing of peptides in rat plasma or blood; assay type: in vitro ADME; conditions: 37° C.; for Rat plasma stability % remaining T = 0: rat plasma or blood, T = 0 (reference), 5 μM; for remaining at 1 h, 5 µM / remaining at 4 h, 5 µM: whole blood, rat blood; for remaining at 1 h, 5 µM: read-out: Rat stability in blood % remaining 1 h; for remaining at 4 h, 5 µM: read-out: Rat stability in blood % remaining 4 h
# Protocol: as §1, §2, §3, §4, §5
"EC50 (RXFP1; OVCAR5 cells, cAMP HTRF, read-out: EC50 (nM), OVCAR 5 cells (cAMP)) [nM]",Emax (RXFP1) [%],C0 [1] [µM],half-life [1] [h],Cmax [1] [µM],Tmax [1] [h],bioavailability [1] [%],Human Plasma stability % remaining T = 0 [2] [%],"remaining at 1 h, 5 µM ([2]; whole blood, human blood, 1 h, read-out: Human stability in blood % remaining 1 h) [%]","remaining at 4 h, 5 µM ([2]; whole blood, human blood, 4 h, read-out: Human stability in blood % remaining 4 h) [%]",Rat plasma stability % remaining T = 0 [3] [%],"remaining at 1 h, 5 µM [3] [%]","remaining at 4 h, 5 µM [3] [%]",Compound
17.6,87,4.77,4.3,1.7,6,53,100,110,91,100,110,93,CCCCCCCCCCCCCCCC(=O)N[C@@H](CCC(=O)N[C@@H](CCC(=O)N[C@@H](CCC(=O)NCCCC[C@H](NC(=O)[C@H](CCCCN)NC(=O)[C@H](CCCNC(=N)N)NC(=O)C(C)(C)NC(=O)[C@H](CO)NC(=O)[C@H](Cc1c[nH]c2ccccc12)NC(=O)[C@@H](NC(=O)[C@H](CO)NC(=O)[C@H](CCSC)NC(=O)CNC(=O)[C@H](CCC(=O)O)NC(=O)C(C)(C)NC(=O)C(C)(C)NC(=O)[C@@H](NC(=O)[C@H](CCC(N)=O)NC(=O)[C@H](C)NC(=O)[C@H](CCCNC(=N)N)NC(=O)[C@@H](NC(=O)[C@H](CCCCN)NC(=O)[C@H](CCC(=O)O)NC(=O)[C@H](CCCNC(=N)N)NC(=O)CNC(=O)[C@H](CCC(=O)O)NC(=O)[C@H](CC(C)C)NC(C)=O)C(C)C)[C@@H](C)CC)[C@@H](C)O)C(N)=O)C(=O)O)C(=O)O)C(=O)O [compound 7] (Ac-LEGREKVRAQI[Aib][Aib]EGMSTWS[Aib]RKK([γGlu-γGlu-γGlu-Palmitoyl])-NH2)
,95,4.99,3,2.32,6,42,100,,,100,84,92,CCCCCCCCCCCCCCCCCC(=O)N[C@@H](CCC(=O)N[C@@H](CCC(=O)N[C@@H](CCC(=O)NCCCC[C@H](NC(=O)[C@H](CCCCN)NC(=O)[C@H](CCCNC(=N)N)NC(=O)C(C)(C)NC(=O)[C@H](CO)NC(=O)[C@H](Cc1c[nH]c2ccccc12)NC(=O)[C@@H](NC(=O)[C@H](CO)NC(=O)[C@H](CCCC)NC(=O)CNC(=O)[C@H](CCC(=O)O)NC(=O)C(C)(C)NC(=O)C(C)(C)NC(=O)[C@@H](NC(=O)[C@H](CCC(N)=O)NC(=O)[C@H](C)NC(=O)[C@H](CCCNC(=N)N)NC(=O)[C@@H](NC(=O)[C@H](CCCCN)NC(=O)[C@H](CCC(=O)O)NC(=O)[C@H](CCCNC(=N)N)NC(=O)CNC(=O)[C@H](CCC(=O)O)NC(=O)[C@H](CC(C)C)NC(C)=O)C(C)C)[C@@H](C)CC)[C@@H](C)O)C(N)=O)C(=O)O)C(=O)O)C(=O)O [compound 9] (Ac-LEGREKVRAQI[Aib][Aib]EG[Nle]STWS[Aib]RKK([γGlu-γGlu-γGlu-Stearoyl])-NH2)
